Measured values published in US8053553B2, “Targeting host proteinases as a therapeutic strategy against viral and bacterial pathogens” (Socpra Sciences Sante Et Humaines, priority 2007, dated 2011).
Non-standard residues stand in square brackets, D forms with d. Residues, ends and D or L forms follow the SMILES beside them. Sar = CNCC(=O)O

biological target: T1, furin (Homo sapiens, UniProt P09958); test: biochemical; conditions: not given
T1 construct: made in house; host or cells: Drosophila S2 cells (Invitrogen expression system)
T1 sequence (P09958 108-794 limits assumed): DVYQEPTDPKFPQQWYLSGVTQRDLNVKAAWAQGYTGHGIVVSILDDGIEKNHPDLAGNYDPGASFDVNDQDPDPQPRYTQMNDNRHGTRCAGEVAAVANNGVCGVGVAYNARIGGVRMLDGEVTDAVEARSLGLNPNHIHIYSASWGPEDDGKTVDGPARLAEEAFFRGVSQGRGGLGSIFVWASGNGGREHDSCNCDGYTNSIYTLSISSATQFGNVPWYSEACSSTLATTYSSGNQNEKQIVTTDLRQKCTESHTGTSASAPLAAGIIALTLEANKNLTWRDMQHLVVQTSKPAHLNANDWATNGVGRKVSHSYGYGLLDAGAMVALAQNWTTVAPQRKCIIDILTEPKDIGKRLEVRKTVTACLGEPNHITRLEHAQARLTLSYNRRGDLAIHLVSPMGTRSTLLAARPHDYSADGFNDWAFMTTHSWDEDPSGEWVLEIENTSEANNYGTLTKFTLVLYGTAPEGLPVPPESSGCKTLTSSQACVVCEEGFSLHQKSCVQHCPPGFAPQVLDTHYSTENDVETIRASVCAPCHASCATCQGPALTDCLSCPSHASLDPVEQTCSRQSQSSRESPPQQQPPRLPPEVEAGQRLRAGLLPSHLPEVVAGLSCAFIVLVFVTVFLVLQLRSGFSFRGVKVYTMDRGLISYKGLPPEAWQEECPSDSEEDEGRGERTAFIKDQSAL

| SMILES | Ki [nM] |
| --- | --- |
| C[C@@H](O)[C@H](N)C(=O)N1CCC[C@H]1C(=O)N[C@@H](CCC(N)=O)C(=O)N[C@@H](CCCNC(=N)N)C(=O)N[C@@H](CCCNC(N)=O)C(=O)N[C@@H](CCCNC(=N)N)C(=O)N[C@@H](CCCNC(=N)N)C(=O)N[C@@H](CCCNC(=N)N)C(=O)N[C@@H](CCCCN)C(=O)N[C@@H](CCCCN)C(=O)N[C@@H](CCCNC(=N)N)C(=O)NCC(N)=O [TPQR4RRRKKRG] | > 100 |

same assay, conditions: furin, Pyr-RTKR-AMC substrate; N-terminal deletions (Example 2, Table 6); read-out: Ki

| SMILES | Ki [nM] |
| --- | --- |
| C[C@H](NC(=O)[C@H](CCCNC(=N)N)NC(=O)[C@@H]1CCCN1)C(=O)N[C@@H](CCCNC(=N)N)C(=O)N[C@@H](CCCNC(=N)N)C(=O)N[C@@H](CCCNC(=N)N)C(=O)N[C@@H](CCCCN)C(=O)N[C@@H](CCCCN)C(=O)N[C@@H](CCCNC(=N)N)C(=O)N[C@H](C(N)=O)[C@@H](C)O | 16.6 |

same assay, conditions: furin, Pyr-RTKR-AMC substrate; alanine scanning mutagenesis of the H5 furin cleavage sequence (Table 2); read-out: Ki

| SMILES | Ki [nM] |
| --- | --- |
| C[C@H](NC(=O)[C@H](C)NC(=O)[C@H](CCCNC(=N)N)NC(=O)[C@H](CCCNC(=N)N)NC(=O)[C@H](CCC(=O)O)NC(=O)[C@H](CCCNC(=N)N)NC(=O)[C@@H]1CCCN1C(=O)[C@@H](N)[C@@H](C)O)C(=O)N[C@@H](CCCCN)C(=O)N[C@@H](CCCNC(=N)N)C(=O)NCC(N)=O (H-TPRERRAAKRG-NH2) | > 100 |
| CC(C)[C@H](NC(=O)[C@H](CCCNC(=N)N)NC(=O)[C@H](CCCCN)NC(=O)[C@H](CCCCN)NC(=O)[C@H](CCCNC(=N)N)NC(=O)[C@H](C)NC(=O)[C@H](C)NC(=O)[C@H](CCC(=O)O)NC(=O)[C@H](CCCNC(=N)N)NC(=O)[C@@H]1CCCN1C(=O)[C@@H](N)[C@@H](C)O)C(N)=O (H-TPREAARKKRV-NH2) | > 100 |
| CC(C)[C@H](NC(=O)[C@H](CCCNC(=N)N)NC(=O)[C@H](C)NC(=O)[C@H](CCCCN)NC(=O)[C@H](CCCNC(=N)N)NC(=O)[C@H](CCCNC(=N)N)NC(=O)[C@H](CCCNC(=N)N)NC(=O)[C@H](CCC(=O)O)NC(=O)[C@H](CCCNC(=N)N)NC(=O)[C@@H]1CCCN1C(=O)[C@@H](N)[C@@H](C)O)C(N)=O (H-TPRERRRKARV-NH2) | > 100 |
| C[C@H](N)C(=O)N[C@@H](C)C(=O)N[C@@H](C)C(=O)N[C@@H](CCC(=O)O)C(=O)N[C@@H](CCCNC(=N)N)C(=O)N[C@@H](CCCNC(=N)N)C(=O)N[C@@H](CCCNC(=N)N)C(=O)N[C@@H](CCCCN)C(=O)N[C@@H](CCCCN)C(=O)N[C@@H](CCCNC(=N)N)C(N)=O (H-AAAERRRKKR-NH2) | > 100 |
| C[C@H](NC(=O)[C@H](C)NC(=O)[C@H](CCC(=O)O)NC(=O)[C@H](CCCNC(=N)N)NC(=O)[C@@H]1CCCN1C(=O)[C@@H](N)[C@@H](C)O)C(=O)N[C@@H](CCCNC(=N)N)C(=O)N[C@@H](CCCCN)C(=O)N[C@@H](CCCCN)C(=O)N[C@@H](CCCNC(=N)N)C(=O)N(C)CC(N)=O (H-TPREAARKKR[Sar]-NH2) | > 100 |
| C[C@H](N)C(=O)N1CCC[C@H]1C(=O)N[C@@H](CCCNC(=N)N)C(=O)N[C@@H](CCC(=O)O)C(=O)N[C@@H](CCCNC(=N)N)C(=O)N[C@@H](CCCNC(=N)N)C(=O)N[C@@H](CCCNC(=N)N)C(=O)N[C@@H](CCCCN)C(=O)N[C@@H](CCCCN)C(=O)N[C@@H](CCCNC(=N)N)C(=O)NCC(N)=O (H-APRERRRKKRG-NH2) | > 100 |
| CC(C)[C@H](NC(=O)[C@H](CCCNC(=N)N)NC(=O)[C@H](CCCCN)NC(=O)[C@H](CCCCN)NC(=O)[C@H](CCCNC(=N)N)NC(=O)[C@H](CCCNC(=N)N)NC(=O)[C@H](CCCNC(=N)N)NC(=O)[C@H](CCC(=O)O)NC(=O)[C@H](C)NC(=O)[C@H](C)NC(=O)[C@H](C)N)C(N)=O (H-AAAERRRKKRV-NH2) | > 100 |
| C[C@H](NC(=O)[C@H](C)NC(=O)[C@H](CCCNC(=N)N)NC(=O)[C@H](CCC(=O)O)NC(=O)[C@H](CCCNC(=N)N)NC(=O)[C@@H]1CCCN1C(=O)[C@@H](N)[C@@H](C)O)C(=O)N[C@@H](CCCCN)C(=O)N[C@@H](CCCCN)C(=O)N[C@@H](CCCNC(=N)N)C(=O)N(C)CC(N)=O (H-TPRERAAKKR[Sar]-NH2) | > 100 |
| CC(C)[C@H](NC(=O)[C@H](C)NC(=O)[C@H](C)NC(=O)[C@H](CCCCN)NC(=O)[C@H](CCCNC(=N)N)NC(=O)[C@H](CCCNC(=N)N)NC(=O)[C@H](CCCNC(=N)N)NC(=O)[C@H](CCC(=O)O)NC(=O)[C@H](CCCNC(=N)N)NC(=O)[C@@H]1CCCN1C(=O)[C@@H](N)[C@@H](C)O)C(N)=O (H-TPRERRRKAAV-NH2) | > 100 |
| C[C@H](NC(=O)[C@H](C)NC(=O)[C@H](CCCNC(=N)N)NC(=O)[C@H](CCC(=O)O)NC(=O)[C@H](CCCNC(=N)N)NC(=O)[C@@H]1CCCN1C(=O)[C@@H](N)[C@@H](C)O)C(=O)N[C@@H](CCCCN)C(=O)N[C@@H](CCCCN)C(=O)N[C@@H](CCCNC(=N)N)C(N)=O (H-TPRERAAKKR-NH2) | > 100 |
| C[C@H](NC(=O)[C@H](C)NC(=O)[C@@H]1CCCN1C(=O)[C@@H](N)[C@@H](C)O)C(=O)N[C@@H](C)C(=O)N[C@@H](CCCNC(=N)N)C(=O)N[C@@H](CCCNC(=N)N)C(=O)N[C@@H](CCCCN)C(=O)N[C@@H](CCCCN)C(=O)N[C@@H](CCCNC(=N)N)C(=O)NCC(N)=O (H-TPAAARRKKRG-NH2) | > 100 |

same assay, conditions: furin, Pyr-RTKR-AMC substrate; optimization of the inhibitory peptides (Table 3); read-out: Ki

| SMILES | Ki [nM] |
| --- | --- |
| CC(C)C[C@H](NC(=O)[C@H](CCCNC(=N)N)NC(=O)[C@H](CCC(N)=O)NC(=O)[C@@H]1CCCN1C(=O)[C@@H](N)[C@@H](C)O)C(=O)N[C@@H](CCCNC(=N)N)C(=O)N[C@@H](CCCNC(=N)N)C(=O)N[C@@H](CCCNC(=N)N)C(=O)N[C@@H](CCCCN)C(=O)N[C@@H](CCCCN)C(=O)N[C@@H](CCCNC(=N)N)C(=O)NCC(N)=O | > 100 |
| C[C@@H](O)[C@H](N)C(=O)N1CCC[C@H]1C(=O)N[C@@H](CCC(N)=O)C(=O)N[C@@H](CCCNC(=N)N)C(=O)N[C@@H](Cc1c[nH]c2ccccc12)C(=O)N[C@@H](CCCNC(=N)N)C(=O)N[C@@H](CCCNC(=N)N)C(=O)N[C@@H](CCCNC(=N)N)C(=O)N[C@@H](CCCCN)C(=O)N[C@@H](CCCCN)C(=O)N[C@@H](CCCNC(=N)N)C(=O)NCC(N)=O (H-TPQRWRRRKKRG-NH2) | > 100 |
| C[C@H](NC(=O)[C@H](CCCNC(=N)N)NC(=O)[C@H](CCC(N)=O)NC(=O)[C@@H]1CCCN1C(=O)[C@@H](N)[C@@H](C)O)C(=O)N[C@@H](CCCNC(=N)N)C(=O)N[C@@H](CCCNC(=N)N)C(=O)N[C@@H](CCCNC(=N)N)C(=O)N[C@@H](CCCCN)C(=O)N[C@@H](CCCCN)C(=O)N[C@@H](CCCNC(=N)N)C(=O)N[C@@H](CCC(=O)O)C(N)=O (H-TPQRARRRKKRE-NH2) | 103 |
| C[C@H](NC(=O)[C@H](CCCNC(=N)N)NC(=O)[C@H](CCC(N)=O)NC(=O)[C@@H]1CCCN1C(=O)[C@@H](N)[C@@H](C)O)C(=O)N[C@@H](CCCNC(=N)N)C(=O)N[C@@H](CCCNC(=N)N)C(=O)N[C@@H](CCCNC(=N)N)C(=O)N[C@@H](CCCCN)C(=O)N[C@@H](CCCCN)C(=O)N[C@@H](CCCNC(=N)N)C(=O)NCC(N)=O | > 100 |
| C[C@H](NC(=O)[C@H](CCCNC(=N)N)NC(=O)[C@H](CCC(N)=O)NC(=O)[C@@H]1CCCN1C(=O)[C@@H](N)[C@@H](C)O)C(=O)N[C@@H](CCCNC(=N)N)C(=O)N[C@@H](CCCNC(=N)N)C(=O)N[C@@H](CCCNC(=N)N)C(=O)N[C@@H](CCCCN)C(=O)N[C@@H](CCCCN)C(=O)N[C@@H](CCCNC(=N)N)C(=O)N[C@@H](CC(N)=O)C(N)=O (H-TPQRARRRKKRN-NH2) | > 100 |
| C[C@H](NC(=O)[C@H](CCCNC(=N)N)NC(=O)[C@H](CCC(N)=O)NC(=O)[C@@H]1CCCN1C(=O)[C@@H](N)[C@@H](C)O)C(=O)N[C@@H](CCCNC(=N)N)C(=O)N[C@@H](CCCNC(=N)N)C(=O)N[C@@H](CCCNC(=N)N)C(=O)N[C@@H](CCCCN)C(=O)N[C@@H](CCCCN)C(=O)N[C@@H](CCCNC(=N)N)C(=O)N[C@@H](Cc1ccccc1)C(N)=O (H-TPQRARRRKKRF-NH2) | 44 |
| C[C@H](NC(=O)[C@H](CCCNC(=N)N)NC(=O)[C@H](CCC(N)=O)NC(=O)[C@@H]1CCCN1C(=O)[C@@H](N)[C@@H](C)O)C(=O)N[C@@H](CCCNC(=N)N)C(=O)N[C@@H](CCCNC(=N)N)C(=O)N[C@@H](CCCNC(=N)N)C(=O)N[C@@H](CCCCN)C(=O)N[C@@H](CCCCN)C(=O)N[C@@H](CCCNC(=N)N)C(=O)N[C@@H](Cc1ccc(O)cc1)C(N)=O (H-TPQRARRRKKRY-NH2) | 47 |
| CC(C)C[C@H](NC(=O)[C@H](CCCNC(=N)N)NC(=O)[C@H](CCCCN)NC(=O)[C@H](CCCCN)NC(=O)[C@H](CCCNC(=N)N)NC(=O)[C@H](CCCNC(=N)N)NC(=O)[C@H](CCCNC(=N)N)NC(=O)[C@H](C)NC(=O)[C@H](CCCNC(=N)N)NC(=O)[C@H](CCC(N)=O)NC(=O)[C@@H]1CCCN1C(=O)[C@@H](N)[C@@H](C)O)C(N)=O (H-TPQRARRRKKRL-NH2) | > 100 |
| C[C@@H](O)[C@H](N)C(=O)N1CCC[C@H]1C(=O)N[C@@H](CCC(N)=O)C(=O)N[C@@H](CCCNC(=N)N)C(=O)N[C@@H](CCCNC(=N)N)C(=O)N[C@@H](CCCNC(=N)N)C(=O)N[C@@H](CCCNC(=N)N)C(=O)N[C@@H](CCCNC(=N)N)C(=O)N[C@@H](CCCCN)C(=O)N[C@@H](CCCCN)C(=O)N[C@@H](CCCNC(=N)N)C(=O)NCC(N)=O | > 100 |
| C[C@@H](O)[C@H](N)C(=O)N1CCC[C@H]1C(=O)N[C@@H](CCC(N)=O)C(=O)N[C@@H](CCCNC(=N)N)C(=O)N[C@@H](CCC(=O)O)C(=O)N[C@@H](CCCNC(=N)N)C(=O)N[C@@H](CCCNC(=N)N)C(=O)N[C@@H](CCCNC(=N)N)C(=O)N[C@@H](CCCCN)C(=O)N[C@@H](CCCCN)C(=O)N[C@@H](CCCNC(=N)N)C(=O)NCC(N)=O | > 100 |
| CSCC[C@H](NC(=O)[C@H](CCCNC(=N)N)NC(=O)[C@H](CCCCN)NC(=O)[C@H](CCCCN)NC(=O)[C@H](CCCNC(=N)N)NC(=O)[C@H](CCCNC(=N)N)NC(=O)[C@H](CCCNC(=N)N)NC(=O)[C@H](C)NC(=O)[C@H](CCCNC(=N)N)NC(=O)[C@H](CCC(N)=O)NC(=O)[C@@H]1CCCN1C(=O)[C@@H](N)[C@@H](C)O)C(N)=O (H-TPQRARRRKKRM-NH2) | 58 |
| CC[C@H](C)[C@H](NC(=O)[C@H](CCCNC(=N)N)NC(=O)[C@H](CCCCN)NC(=O)[C@H](CCCCN)NC(=O)[C@H](CCCNC(=N)N)NC(=O)[C@H](CCCNC(=N)N)NC(=O)[C@H](CCCNC(=N)N)NC(=O)[C@H](C)NC(=O)[C@H](CCCNC(=N)N)NC(=O)[C@H](CCC(N)=O)NC(=O)[C@@H]1CCCN1C(=O)[C@@H](N)[C@@H](C)O)C(N)=O (H-TPQRARRRKKRI-NH2) | > 100 |
